A word on the IC50: it is the point on the concentration scale where inhibition reaches its midpoint.

One test relates to IL-17A/A. As to the kind of experiment: IL-17A/A HEK-Blue cell assay. It counts as cell-based. Particulars: HEK-Blue, 20 h, IL-17A/A inhibition, HEK-Blue IL-17A reporter cell line, IL17A/A 5 ng/mL, SEAP read at A630, read-out: AA IC50. Here is the method:
The HEK-Blue IL-17A reporter cell line (Fisher #NC1408637) was used for cell-based IL-17A/A inhibition assays. Cells were grown and prepared for assays according to the manufacturer's instructions. This cell line consists of HEK 293 cells that were designed to expressed IL-17RA, IL-17RC, and the Act1 adapter molecule, the combination of which, when stimulated by IL-17A/A or IL17A/F activates a NFκB promoter and drives expression of the recombinant Secreted Alkaline Phosphatase (SEAP) gene. Media from the cells is then added to a development reagent (Quanti-Blue Substrate, Fisher #NC9711613), and read at A630.
Compounds were dispensed in DMSO to an empty clear 384-well tissue culture plate in a titration ranging from 10 μM to 27 pM, with DMSO added to every well to a final concentration of 0.1%. Cells were then added to the plate (45 μL/well at a concentration of 280,000 cells/mL). IL17A/A (Genscript #Z03228) or IL17A/F (R&D Systems) was added to the plate to a final concentration of 5 ng/mL and a final well volume of 50 μL. The cells, compound, and IL-17A/A or IL17A/F were then incubated for 20 hours before media was removed for SEAP analysis. The resulting inhibition curve was then analyzed using Dotmatics' integrated 4-parameter fit screening protocol to generate IC50 values.
`O=C(N[C@H](c1cn2nc(C[C@H]3C[C@@H](C(F)(F)F)CNC3=O)c(C3CCOC3)cc2n1)C1CCC(F)(F)CC1)c1nonc1C1CC1` (single isomer, unassigned) [Compound 45]: the IC50 is under 100 nM.

For `CCn1nccc1C(=O)N[C@H](c1cn2nc(C[C@H]3C[C@@H](C(F)(F)F)CNC3=O)c(-c3cccnc3)cc2n1)C1CCC(F)(F)CC1` [Compound 3], the IC50 was 100 to 1000 nM.

Consider `CCn1nccc1C(=O)N[C@H](c1cn2nc(C[C@H]3C[C@@H](C(F)(F)F)CNC3=O)c(-c3cncnc3)cc2n1)C1CCC(F)(F)CC1` [Compound 4], for which the IC50 lay within 100 to 1000 nM. On the same count and under the same terms, for `CCn1nccc1C(=O)N[C@H](c1cn2nc(C[C@H]3C[C@@H](C(F)(F)F)CNC3=O)c(C3COC3)cc2n1)C1CCC(F)(F)CC1` [Compound 5] the value was under 100 nM. Turning to `CCn1nccc1C(=O)N[C@H](c1cn2nc(C[C@H]3C[C@@H](C(F)(F)F)CNC3=O)c(C3CCOC3)cc2n1)C1CCC(F)(F)CC1` (stereo partly shown) [Compound 6], the IC50 is under 100 nM. For the molecule `CCn1nccc1C(=O)N[C@H](c1cn2nc(C[C@H]3C[C@@H](C(F)(F)F)CNC3=O)c(C3CCCOC3)cc2n1)C1CCC(F)(F)CC1` (stereo partly shown) [Compound 7], the IC50 was in the range of 100 to 1000 nM. Consider `CCn1nccc1C(=O)N[C@H](c1cn2nc(C[C@@H]3C[C@@H](C(F)(F)F)CNC3=O)c(-c3cccnc3)cc2n1)C1CCC(F)(F)CC1` [Compound 8], for which the IC50 was in the range of 100 to 1000 nM. Regarding `CCn1nccc1C(=O)N[C@H](c1cn2nc(C[C@@H]3C[C@@H](C(F)(F)F)CNC3=O)c(-c3cncnc3)cc2n1)C1CCC(F)(F)CC1` [Compound 9], the IC50 is over 1000 nM. With `CCn1nccc1C(=O)N[C@H](c1cn2nc(C[C@@H]3C[C@@H](C(F)(F)F)CNC3=O)c(C3CCOC3)cc2n1)C1CCC(F)(F)CC1` (stereo partly shown) [Compound 10], the IC50 was 100 to 1000 nM.

As to `CCn1nccc1C(=O)N[C@H](c1cn2nc(CC3C[C@@H](C(F)(F)F)CNC3=O)c(N3CCOCC3)cc2n1)C1CCC(F)(F)CC1` (stereo partly shown) [Compound 14], the IC50 was under 100 nM. The same measure, in the same setting: for `O=C(N[C@H](c1cn2nc(CC3C[C@@H](C(F)(F)F)CNC3=O)c(N3CCOCC3)cc2n1)C1CCC(F)(F)CC1)c1nonc1C1CC1` (stereo partly shown) [Compound 15] the value was under 100 nM; for `O=C(N[C@H](c1cn2nc(C[C@H]3C[C@@H](C(F)(F)F)CNC3=O)c(N3CCOCC3)cc2n1)C1CCC(F)(F)CC1)c1nonc1C1CC1` [Compound 16], under 100 nM; for `O=C(N[C@H](c1cn2nc(C[C@@H]3C[C@@H](C(F)(F)F)CNC3=O)c(N3CCOCC3)cc2n1)C1CCC(F)(F)CC1)c1nonc1C1CC1` [Compound 17], 100 to 1000 nM. On the same count and under the same terms, for `CCn1nccc1C(=O)N[C@H](c1cn2nc(C[C@H]3C[C@@H](C(F)(F)F)CNC3=O)c(N3CCCCC3)cc2n1)C1CCC(F)(F)CC1` [Compound 18] the value was under 100 nM. Same read-out and setting: for `CCn1nccc1C(=O)N[C@H](c1cn2nc(C[C@H]3C[C@@H](C(F)(F)F)CNC3=O)c(N3CCC(F)(F)CC3)cc2n1)C1CCC(F)(F)CC1` [Compound 19] the value was under 100 nM; for `CCn1nccc1C(=O)N[C@H](c1cn2nc(C[C@H]3C[C@@H](C(F)(F)F)CNC3=O)c(N3CCN(C)CC3)cc2n1)C1CCC(F)(F)CC1` [Compound 20], under 100 nM. Regarding `CCn1nccc1C(=O)N[C@H](c1cn2nc(C[C@H]3C[C@@H](C(F)(F)F)CNC3=O)c(C3CCOCC3)cc2n1)C1CCC(F)(F)CC1` [Compound 21, N—((S)-(4,4-difluorocyclohexyl)(6-(((3R,5R)-2-oxo-5-(trifluoromethyl)piperidin-3-yl)methyl)-7-(tetrahydro-2H-pyran-4-yl)imidazo[1,2-b]pyridazin-2-yl)methyl)-1-ethyl-1H-pyrazole-5-carboxamide], the half-maximal inhibitory concentration (IC50) is under 100 nM. For `CCn1nccc1C(=O)N[C@H](c1cn2nc(C[C@H]3C[C@@H](C(F)(F)F)CNC3=O)c(N3CCCC3)cc2n1)C1CCC(F)(F)CC1` [Compound 22], the concentration for half-maximal inhibition (IC50) was under 100 nM. For `CCn1nccc1C(=O)N[C@H](c1cn2nc(C[C@H]3C[C@@H](C(F)(F)F)CNC3=O)c(N3CCC3)cc2n1)C1CCC(F)(F)CC1` [Compound 23], the half-maximal inhibitory concentration (IC50) is under 100 nM. On to `CCn1nccc1C(=O)N[C@H](c1cn2nc(C[C@@H]3C[C@@H](C(F)(F)F)CNC3=O)c(N3CCC3)cc2n1)C1CCC(F)(F)CC1` [Compound 24], for which the half-maximal inhibitory concentration (IC50) is over 1000 nM. With `CCn1nccc1C(=O)N[C@H](c1cn2nc(C[C@H]3C[C@@H](C(F)(F)F)CNC3=O)c(N3CCOCC3)cc2n1)[C@H]1CCCC(F)(F)C1` [Compound 25], the 50% inhibitory concentration (IC50) is under 100 nM. Still for that read-out and setting: for `CCn1nccc1C(=O)N[C@H](c1cn2nc(C[C@H]3C[C@@H](C(F)(F)F)CNC3=O)c(N3CCOCC3)cc2n1)[C@@H]1CCCC(F)(F)C1` [Compound 26] the value was under 100 nM.

Take `CC(C)n1nccc1C(=O)N[C@H](c1cn2nc(C[C@H]3C[C@@H](C(F)(F)F)CNC3=O)c(N3CCOCC3)cc2n1)[C@H]1CCCC(F)(F)C1` [Compound 27]: the half-inhibitory concentration (IC50) was under 100 nM.

On to `CC(C)n1nccc1C(=O)N[C@H](c1cn2nc(C[C@H]3C[C@@H](C(F)(F)F)CNC3=O)c(N3CCOCC3)cc2n1)[C@@H]1CCCC(F)(F)C1` [Compound 28], for which the IC50 was under 100 nM.

With `O=C(N[C@H](c1cn2nc(C[C@H]3C[C@@H](C(F)(F)F)CNC3=O)c(N3CCOCC3)cc2n1)[C@H]1CCCC(F)(F)C1)c1nonc1C1CC1` [Compound 29], the IC50 is under 100 nM.

With `O=C(N[C@H](c1cn2nc(C[C@H]3C[C@@H](C(F)(F)F)CNC3=O)c(N3CCOCC3)cc2n1)[C@@H]1CCCC(F)(F)C1)c1nonc1C1CC1` [Compound 30], the IC50 was under 100 nM. On the same count and under the same terms, for `CCn1nccc1C(=O)N[C@H](c1cn2nc(C[C@H]3C[C@@H](C(F)(F)F)CNC3=O)c(N3CCOCC3C)cc2n1)C1CCC(F)(F)CC1` (stereo partly shown) [Compound 32] the value was 100 to 1000 nM. With `CCn1nccc1C(=O)N[C@H](c1cn2nc(C[C@H]3C[C@@H](C(F)(F)F)CNC3=O)c(N3CCO[C@H](C)C3)cc2n1)C1CCC(F)(F)CC1` [Compound 33, N—((S)-(4,4-difluorocyclohexyl)(7-((R)-2-methylmorpholino)-6-(((3R,5R)-2-oxo-5-(trifluoromethyl)piperidin-3-yl)methyl)imidazo[1,2-b]pyridazin-2-yl)methyl)-1-ethyl-1H-pyrazole-5-carboxamide], the 50% inhibitory concentration (IC50) is under 100 nM. As to `CCn1nccc1C(=O)N[C@H](c1cn2nc(C[C@H]3C[C@@H](C(F)(F)F)CNC3=O)c(N3CC4CC(C3)O4)cc2n1)C1CCC(F)(F)CC1` [Compound 35], the IC50 was under 100 nM.

The same test, now with this note: IL-17A/A inhibition, HEK-Blue IL-17A reporter cell line, IL17A/A 5 ng/mL, 20 hours, SEAP read at A630; read-out: AA IC50.
Take `CCn1nccc1C(=O)N[C@H](c1cn2nc(C[C@H]3C[C@@H](C(F)(F)F)CNC3=O)c(C3CCCOC3)cc2n1)C1CCC(F)(F)CC1` (stereo partly shown) [Compound 2]: the 50% inhibitory concentration (IC50) fell in the range of 100 to 1000 nM.

Regarding `CCn1nccc1C(=O)N[C@H](c1cn2nc(C[C@@H]3C[C@@H](C(F)(F)F)CNC3=O)c(C3CCOC3)cc2n1)C1CCC(F)(F)CC1` (stereo partly shown) [Compound 11], the IC50 was 100 to 1000 nM. Regarding `CCn1nccc1C(=O)N[C@H](c1cn2nc(C[C@H]3C[C@@H](C(F)(F)F)CNC3=O)c(C3CCCOC3)cc2n1)C1CCC(F)(F)CC1` (stereo partly shown) [Compound 12], the IC50 was under 100 nM. Turning to `CCn1nccc1C(=O)N[C@H](c1cn2nc(C[C@H]3C[C@@H](C(F)(F)F)CNC3=O)c(C3CCCOC3)cc2n1)C1CCC(F)(F)CC1` (stereo partly shown) [Compound 13], the IC50 was under 100 nM.

With `CCn1nccc1C(=O)N[C@H](c1cn2nc(C[C@H]3C[C@@H](C(F)(F)F)CNC3=O)c(N3CCOC(C)C3)cc2n1)C1CCC(F)(F)CC1` (stereo partly shown) [Compound 34], the half-inhibitory concentration (IC50) was under 100 nM.

The values above are taken from US20260265259A1, “SUBSTITUTED 6-IMIDAZOPYRIDAZINE IL-17A MODULATORS AND USES THEREOF” (DICE ALPHA, INC., priority 2023, published 2026).
